Data on 19 compounds can be found in patent US9051304B2, “Carboxamide compounds and their use as calpain inhibitors V” (AbbVie Deutschland GmbH & Co. KG, priority 2009, dated 2015).

Holding throughout (format): biochemical
Test [1] has as its target T1, calpain-I isolated from human erythrocytes (Homo sapiens, UniProt P07384).
T1 construct: calpain-I—isolated from human erythrocytes; purchased Calbiochem 208713; host or cells: human erythrocytes (tissue isolate)
T1 sequence (P07384 1-714): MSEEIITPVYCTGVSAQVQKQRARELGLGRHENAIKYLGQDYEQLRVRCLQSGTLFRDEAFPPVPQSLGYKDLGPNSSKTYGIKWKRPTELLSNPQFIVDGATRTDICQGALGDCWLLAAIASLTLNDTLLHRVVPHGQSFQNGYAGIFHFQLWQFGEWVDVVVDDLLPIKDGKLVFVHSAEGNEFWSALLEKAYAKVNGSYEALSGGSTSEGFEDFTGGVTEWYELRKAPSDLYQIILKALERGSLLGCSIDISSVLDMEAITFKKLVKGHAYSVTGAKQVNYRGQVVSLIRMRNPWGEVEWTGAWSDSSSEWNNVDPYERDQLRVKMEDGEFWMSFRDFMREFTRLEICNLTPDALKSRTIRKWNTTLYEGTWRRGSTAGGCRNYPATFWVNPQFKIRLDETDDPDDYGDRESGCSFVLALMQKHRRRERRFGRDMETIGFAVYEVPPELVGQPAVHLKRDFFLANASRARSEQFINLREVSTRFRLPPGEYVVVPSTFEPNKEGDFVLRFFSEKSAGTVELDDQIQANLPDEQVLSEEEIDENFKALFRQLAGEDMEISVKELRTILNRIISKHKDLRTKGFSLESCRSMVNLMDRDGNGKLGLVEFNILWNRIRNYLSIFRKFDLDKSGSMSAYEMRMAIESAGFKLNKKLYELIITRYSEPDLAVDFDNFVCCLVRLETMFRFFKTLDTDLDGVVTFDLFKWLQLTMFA
T1 sequence (P04632 1-268 partner): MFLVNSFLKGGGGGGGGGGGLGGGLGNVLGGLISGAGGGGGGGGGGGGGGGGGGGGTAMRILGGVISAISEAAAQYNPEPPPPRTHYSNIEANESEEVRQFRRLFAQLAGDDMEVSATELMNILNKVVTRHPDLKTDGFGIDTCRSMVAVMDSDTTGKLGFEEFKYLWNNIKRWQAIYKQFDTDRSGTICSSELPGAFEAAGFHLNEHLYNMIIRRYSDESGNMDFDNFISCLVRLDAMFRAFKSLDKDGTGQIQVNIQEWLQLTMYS
As to the kind of experiment: Calpain I enzyme inhibition, kinetic fluorescence assay. Particulars: apparent Ki from IC50 by Cheng-Prussoff; human erythrocyte calpain-I. Here is the method: (§1) I Enzyme Inhibition in vitro:
(§2) Testing for blockade of the corresponding enzymic activities was carried out by means of kinetic fluorescence assays (excitation 390 nm, emission 460 nm).
(§3) Apparent Ki values were calculated from the experimentally determined IC50 values by the Cheng-Prussoff relation assuming a reversible competitive enzyme inhibition.
20 nM calpain-I—isolated from human erythrocytes (Calbiochem #208713), 100 μM Suc-Leu-Tyr-AMC (Bachem #I-1355) as substrate in buffer with 62 mM imidazole, 0.3 mM CaCl2, 0.10% CHAPS, 0.05% BSA, 1 mM DTT at pH 7.3 and room temperature.

Test [2] has as its target T2, cathepsin B isolated from human liver (Homo sapiens, UniProt P07858).
T2 construct: cathepsin B—isolated from human liver; purchased Calbiochem 219362; host or cells: human liver (tissue isolate)
As to the kind of experiment: Cathepsin B enzyme inhibition, kinetic fluorescence assay. Particulars: selectivity ratio vs calpain. How it is done: as §1, §2, §3
0.25 nM cathepsin B—isolated from human liver (Calbiochem #219362), 100 μM Z-Phe-Arg-AMC (Bachem #I-1160) as substrate 50 mM MES, 2 mM EDTA, 0.05% Brij 35, 2.5 mM L-cysteine, pH 6.0, room temperature.

The target in test [3] is T3, cathepsin K activated from recombinant human procathepsin K (Homo sapiens, UniProt P43235).
T3 construct: purchased Calbiochem 342001; host or cells: E. coli
T3 sequence (P43235 115-329): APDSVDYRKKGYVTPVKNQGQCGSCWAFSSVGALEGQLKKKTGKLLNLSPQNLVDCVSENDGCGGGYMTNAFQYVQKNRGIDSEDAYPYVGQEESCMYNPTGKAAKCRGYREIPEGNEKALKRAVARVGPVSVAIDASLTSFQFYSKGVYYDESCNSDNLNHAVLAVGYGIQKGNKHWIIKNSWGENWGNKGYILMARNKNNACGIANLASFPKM
As to the kind of experiment: Cathepsin K enzyme inhibition, kinetic fluorescence assay. Particulars: selectivity ratio vs calpain. Here is the method:
as §1, §2, §3
3 nM cathepsin K—activated from recombinant human procathepsin K from E. coli (Calbiochem #342001), 10 μM Z-Gly-Pro-Arg-AMC (Biomol #P-142) as substrate in 50 mM MES, 2 mM EDTA, 0.05% Brij 35, 2.5 mM L-cysteine, pH 6.0, room temperature.

Test [4] deals with T4, cathepsin L isolated from human liver (Homo sapiens, UniProt P07711).
T4 construct: cathepsin L—isolated from human liver; purchased Calbiochem 219402; host or cells: human liver (tissue isolate)
As to the kind of experiment: Cathepsin L enzyme inhibition, kinetic fluorescence assay. Particulars: selectivity ratio vs calpain. Here is the method:
as §1, §2, §3
1 nM cathepsin L—isolated from human liver (Calbiochem #219402), 2 μM Z-Phe-Arg-AMC (Bachem #I-1160) as substrate in 50 mM MES, 2 mM EDTA, 0.05% Brij 35, 2.5 mM L-cysteine, pH 6.0, room temperature.

For test [5], the target named is T5, recombinant human cathepsin S (Homo sapiens, UniProt P25774).
T5 construct: purchased Calbiochem 219343; host or cells: E. coli
As to the kind of experiment: Cathepsin S enzyme inhibition, kinetic fluorescence assay. Particulars: selectivity ratio vs calpain. How it is done: as §1, §2, §3
0.5 nM recombinant human cathepsin S from E. coli (Calbiochem #219343), 20 μM Z-Val-Val-Arg-AMC (Bachem #I-1540) as substrate in 50 mM MES, 2 mM EDTA, 0.05% Brij 35, 2.5 mM L-cysteine, pH 6.0, room temperature.

Some results are limits rather than exact numbers.

T4 sequence (P07711 114-333): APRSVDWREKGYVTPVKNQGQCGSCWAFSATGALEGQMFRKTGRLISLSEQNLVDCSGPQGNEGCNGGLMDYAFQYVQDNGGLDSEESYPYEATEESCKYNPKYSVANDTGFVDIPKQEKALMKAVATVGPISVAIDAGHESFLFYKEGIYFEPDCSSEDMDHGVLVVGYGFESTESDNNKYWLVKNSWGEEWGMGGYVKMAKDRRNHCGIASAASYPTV
T5 sequence (P25774 115-331): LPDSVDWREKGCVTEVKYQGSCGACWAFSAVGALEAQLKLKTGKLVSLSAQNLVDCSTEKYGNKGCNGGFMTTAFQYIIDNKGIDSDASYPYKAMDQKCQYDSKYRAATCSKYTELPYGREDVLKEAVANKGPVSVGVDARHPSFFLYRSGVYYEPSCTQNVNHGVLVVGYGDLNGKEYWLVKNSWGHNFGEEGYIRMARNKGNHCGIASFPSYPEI

As to `O=C(NOC1CCCC1)C(=O)C(Cc1ccccc1)NC(=O)c1cccnc1-n1ccc(-c2ccccc2)n1` (stereo not drawn) [Example 17, N-{4-[(Cyclopentyloxy)amino]-3,4-dioxo-1-phenyl-2-butanyl}-2-(3-phenyl-1H-pyrazol-1-yl)nicotinamide], the Ki in test [1] is 200 to 300 nM. As for `C=CCONC(=O)C(=O)C(Cc1ccccc1)NC(=O)c1cccnc1-n1ccc(-c2ccccc2)n1` (stereo not drawn) [Example 8, N-(4-(Allyloxyamino)-3,4-dioxo-1-phenylbutan-2-yl)-2-(3-phenyl-1H-pyrazol-1-yl)nicotinamide], in test [1], the Ki was < 200 nM. Consider `CONC(=O)C(=O)C(Cc1ccccc1)NC(=O)c1cccnc1-n1ccc(-c2ccc(N3CCOCC3)cc2)n1` (stereo not drawn) [Example 13, N-[4-(Methoxyamino)-3,4-dioxo-1-phenyl-2-butanyl]-2-{3-[4-(4-morpholinyl)phenyl]-1H-pyrazol-1-yl}nicotinamide], for which the Ki in test [1] was in the range of 300 to 600 nM. The “Sel cat. B (Ki(cathepsin B)/Ki(calpain) ratio)” value in test [2] is on record as “∘”. Also, the “Sel cat. K (Ki(cathepsin K)/Ki(calpain) ratio)” value in test [3] is on record as “+ (+ means 2≦Ki(cathepsin K)/Ki(calpain)≦4)”. Also, in test [4], the “Sel cat. L (Ki(cathepsin L)/Ki(calpain) ratio)” value was “++ (++ means 10<Ki(cathepsin L)/Ki(calpain)≦50)”. In addition, the “Sel cat. S (Ki(cathepsin S)/Ki(calpain) ratio)” value in test [5] is “++ (++ means 10<Ki(cathepsin S)/Ki(calpain)≦50)”.

On to `CCONC(=O)C(=O)C(Cc1ccc(F)cc1)NC(=O)c1cccnc1-n1ccc(-c2ccccc2)n1` (stereo not drawn) [Example 18, N-[4-(Ethoxyamino)-1-(4-fluorophenyl)-3,4-dioxo-2-butanyl]-2-(3-phenyl-1H-pyrazol-1-yl)nicotinamide], for which the Ki in test [1] is < 200 nM. `CC(C)ONC(=O)C(=O)C(Cc1ccccc1)NC(=O)c1cccnc1-n1ccc(-c2ccccc2)n1` (stereo not drawn) [Example 11, N-[4-(Isopropoxyamino)-3,4-dioxo-1-phenyl-2-butanyl]-2-(3-phenyl-1H-pyrazol-1-yl)nicotinamide]: the Ki in test [1] was < 200 nM.

On to `CONC(=O)C(=O)C(Cc1ccccc1)NC(=O)c1cccnc1-n1cc(Cl)c(-c2ccccc2)n1` (stereo not drawn) [Example 10, 2-(4-Chloro-3-phenyl-1H-pyrazol-1-yl)-N-(4-(methoxyamino)-3,4-dioxo-1-phenylbutan-2-yl)nicotinamide], for which, in test [1], the Ki was in the range of 300 to 600 nM. Further, in test [2], the “Sel cat. B (Ki(cathepsin B)/Ki(calpain) ratio)” value is “∘”. The “Sel cat. K (Ki(cathepsin K)/Ki(calpain) ratio)” value in test [3] was “+ (+ means 2≦Ki(cathepsin K)/Ki(calpain)≦4)”. For the same compound, in test [4], the “Sel cat. L (Ki(cathepsin L)/Ki(calpain) ratio)” value is listed as “++ (++ means 10<Ki(cathepsin L)/Ki(calpain)≦50)”. Moreover, the “Sel cat. S (Ki(cathepsin S)/Ki(calpain) ratio)” value in test [5] is on record as “++ (++ means 10<Ki(cathepsin S)/Ki(calpain)≦50)”. Consider `O=C(NOCCN1CCOCC1)C(=O)C(Cc1ccccc1)NC(=O)c1cccnc1-n1ccc(-c2ccccc2)n1` (stereo not drawn) [Example 22, N-(4-{[2-(4-Morpholinyl)ethoxy]amino}-3,4-dioxo-1-phenyl-2-butanyl)-2-(3-phenyl-1H-pyrazol-1-yl)nicotinamide], for which the Ki in test [1] is 200 to 300 nM. `CONC(=O)C(=O)C(Cc1ccccc1)NC(=O)c1cccnc1-n1cc(C)c(-c2ccccc2)n1` (stereo not drawn) [Example 4, N-[4-(Methoxyamino)-3,4-dioxo-1-phenylbutan-2-yl]-2-(4-methyl-3-phenyl-1H-pyrazol-1-yl)pyridine-3-carboxamide]: the Ki in test [1] was in the range of 300 to 600 nM.

Regarding `CCCONC(=O)C(=O)C(Cc1ccccc1)NC(=O)c1cccnc1-n1ccc(-c2ccccc2)n1` (stereo not drawn) [Example 12, N-[3,4-Dioxo-1-phenyl-4-(propoxyamino)-2-butanyl]-2-(3-phenyl-1H-pyrazol-1-yl)nicotinamide], in test [1], the Ki is < 200 nM.

Consider `NC(=O)C(=O)C(Cc1ccccc1)NC(=O)c1cccnc1-n1ccc(-c2ccc(F)cc2)n1` (stereo not drawn) [28 (comp.), N-(3-Amino-1-benzyl-2,3-dioxopropyl)-2-[3-(4-fluorophenyl)-1H-pyrazol-1-yl]nicotinamide, reference compound], for which the Ki in test [1] is < 200 nM.

Turning to `O=C(NOC1CCC1)C(=O)C(Cc1ccccc1)NC(=O)c1cccnc1-n1ccc(-c2ccccc2)n1` (stereo not drawn) [Example 20, N-{4-[(Cyclobutyloxy)amino]-3,4-dioxo-1-phenyl-2-butanyl}-2-(3-phenyl-1H-pyrazol-1-yl)nicotinamide], in test [1], the Ki is < 200 nM.

In the case of `CONC(=O)C(=O)C(Cc1ccccc1)NC(=O)c1cccnc1-n1ccc(-c2ccccc2F)n1` (stereo not drawn) [Example 25, 2-[3-(2-Fluorophenyl)-1H-pyrazol-1-yl]-N-[4-(methoxyamino)-3,4-dioxo-1-phenyl-2-butanyl]nicotinamide], the Ki in test [1] is < 200 nM. `CONC(=O)C(=O)C(Cc1cccc(F)c1)NC(=O)c1cccnc1-n1ccc(-c2ccccc2)n1` (stereo not drawn) [Example 6, N-(1-(3-Fluorophenyl)-4-(methoxyamino)-3,4-dioxobutan-2-yl)-2-(3-phenyl-1H-pyrazol-1-yl)nicotinamide]: the Ki in test [1] was 200 to 300 nM.

For `CONC(=O)C(=O)C(Cc1ccccc1)NC(=O)c1cccnc1-n1ccc(-c2ccccc2)n1` (stereo not drawn) [Example 2, N-(4-(Methoxyamino)-3,4-dioxo-1-phenylbutan-2-yl)-2-(3-phenyl-1H-pyrazol-1-yl)nicotinamide], the Ki in test [1] is < 200 nM. On the same count and under the same terms, the figure for `CONC(=O)C(=O)C(Cc1ccc(F)cc1)NC(=O)c1cccnc1-n1ccc(-c2ccccc2)n1` (stereo not drawn) [Example 5, N-(1-(4-Fluorophenyl)-4-(methoxyamino)-3,4-dioxo-butan-2-yl)-2-(3-phenyl-1H-pyrazol-1-yl)nicotinamide] is 300 to 600 nM; for `CCONC(=O)C(=O)C(Cc1ccccc1)NC(=O)c1cccnc1-n1cc(F)c(-c2ccccc2)n1` (stereo not drawn) [Example 19, N-[4-(Ethoxyamino)-3,4-dioxo-1-phenyl-2-butanyl]-2-(4-fluoro-3-phenyl-1H-pyrazol-1-yl)nicotinamide] it is < 200 nM. Consider `CONC(=O)C(=O)C(Cc1ccccc1)NC(=O)c1cccnc1-n1cc(F)c(-c2ccccc2)n1` (stereo not drawn) [Example 3, 2-(4-Fluoro-3-phenyl-1H-pyrazol-1-yl)-N-(4-(methoxyamino)-3,4-dioxo-1-phenylbutan-2-yl)nicotinamide], for which, in test [1], the Ki is < 200 nM. Turning to `O=C(NOCC1CC1)C(=O)C(Cc1ccccc1)NC(=O)c1cccnc1-n1ccc(-c2ccccc2)n1` (stereo not drawn) [Example 23, N-{4-[(Cyclopropylmethoxy)amino]-3,4-dioxo-1-phenyl-2-butanyl}-2-(3-phenyl-1H-pyrazol-1-yl)nicotinamide], the Ki in test [1] was < 200 nM.

Consider `CONC(=O)C(=O)C(Cc1ccccc1)NC(=O)c1cccnc1-n1ccc(-c2ccc(F)cc2)n1` (stereo not drawn) [Example 1, 2-[3-(4-Fluorophenyl)-1H-pyrazol-1-yl]-N-[4-(methoxyamino)-3,4-dioxo-1-phenylbutan-2-yl]pyridine-3-carboxamide], for which the Ki in test [1] was in the range of 200 to 300 nM.
